Key:
ICE [1] = molecular target: T1, ICE (Homo sapiens, UniProt P29466); experiment: ICE inhibition, fluorometric Ki (Ac-Tyr-Val-Ala-Asp-AMC substrate); type: biochemical; conditions: 0.24 nM ICE, 15 μM Ac-Tyr-Val-Ala-Asp-AMC, reversible competitive model
T1 sequence (P29466 120-297 limits assumed): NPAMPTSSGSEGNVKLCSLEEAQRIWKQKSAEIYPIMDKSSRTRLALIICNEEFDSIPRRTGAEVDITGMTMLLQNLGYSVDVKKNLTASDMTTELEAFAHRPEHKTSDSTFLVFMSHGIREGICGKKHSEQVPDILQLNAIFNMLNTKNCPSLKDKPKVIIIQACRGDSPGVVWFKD
T1 sequence (P29466 317-404 limits assumed): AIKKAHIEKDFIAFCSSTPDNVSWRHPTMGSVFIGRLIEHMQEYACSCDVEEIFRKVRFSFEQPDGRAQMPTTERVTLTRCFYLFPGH
Description: Substrate hydrolysis is monitored for 300 seconds by observing the fluorescence of released AMC using excitation at 380 nm and emission at 460 nm. Mean rates of substrate hydrolysis are evaluated by linear-regression analysis of the fluorescence vs time traces.

ICE [2] = molecular target: T1, ICE; experiment: ICE Colorimetric Dose-Response (IC50) Assay; type: biochemical; conditions: 24 nM ICE, 60 min preincubation, 50 μM Ac-Tyr-Val-Ala-Asp-pNA, pH 7.5, 25° C
Description: Aliquots of each dilution are transferred to a microtitre plate in triplicate.
(§1) ICE enzyme is diluted to approximately 24 nM in HGE buffer (100 mM Hepes pH 7.5, 0.5 mM EDTA, 20% glycerol, 0.1% Bovine Serum Albumin (BSA), and activated by adding dithiothreitol (DTT) to a final concentration of 5 mM. The activated enzyme is then aliquoted into wells containing inhibitor or vehicle, and the plate is preincubated for 60 minutes at ambient temperature. Substrate (Ac--Tyr--Val--Ala--Asp--pNA) is added to each well to a final concentration of 50 μM, and plates are placed in the microtitre plate-reader thermostated to 25° C. Beginning 5 minutes after addition of substrate, absorbance (405 nm) of wells is monitored for 1 hour, and activity is calculated as the mean rate of change in absorbance during this interval.

Ich-2 (Caspase-4) = molecular target: T2, Ich-2 (Caspase-4) (Homo sapiens, UniProt P49662); experiment: Ich-2 (Caspase-4) Colorimetric Dose-Response (IC50) Assay; type: biochemical; conditions: 64 nM enzyme, 60 μM Ac-Leu-Glu-Val-Asp-pNA
T2 sequence (P49662 81-270 limits assumed): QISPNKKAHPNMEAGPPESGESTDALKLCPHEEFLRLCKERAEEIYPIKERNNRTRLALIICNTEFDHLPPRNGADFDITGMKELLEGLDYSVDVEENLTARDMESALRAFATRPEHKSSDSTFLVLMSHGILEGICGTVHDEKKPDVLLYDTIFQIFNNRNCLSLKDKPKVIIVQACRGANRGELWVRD
T2 sequence (P49662 290-377 limits assumed): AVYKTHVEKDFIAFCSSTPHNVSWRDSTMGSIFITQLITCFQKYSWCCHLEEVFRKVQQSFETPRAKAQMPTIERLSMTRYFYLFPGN
Description: as §1
Inhibition of Ich-2 enzyme is assayed as described above for ICE, except that enzyme is used at 64 nM, and 60 μM of the Ich-2-specific substrate Ac--Leu--Glu--Val--Asp--pNA is used instead of the ICE substrate Ac--Tyr--Val--Ala--Asp--pNA.

[3] = test system: IL-1β production in human peripheral blood mononuclear cells (PBMCs); experiment: PBMC Cellular Assay, inhibition of LPS-stimulated IL-1β production; type: cell-based; conditions: PBMC; mature IL-1β by ELISA, 10 ng/mL LPS overnight, 2% human AB serum
Excerpt: (§2) Further evidence that compounds of Formula I, II, and III are inhibitors of ICE is provided by their ability to inhibit IL-1β production in human peripheral blood mononuclear cells (PBMCs) as described herein. PBMCs are isolated from heparinized blood by centrifugation over a ficoll cushion, then washed three times with phosphate-buffered saline. PBMCs are suspended in a medium containing RPMI 1640 with glutamine, penicillin, streptomycin, and 2% human AB serum, then plated at 10^6 cells per well in 96 well flat bottom plates. PBMCs are stimulated overnight with 10 ng/mL of lipopolysaccharide (LPS, E. Coli strain 0111:B4; Calbiochem) in the presence or absence of a compound of Formula I. Medium is harvested and the level of mature IL-1β was determined using an ELISA kit from R & D Systems. Compound inhibition is assessed by determining the concentration of agent which reduces IL-1β levels by 50%. Cells were cultured for an additional four hours in the presence of 3-(4,5-dimethylthiazol-2-yl)-2,5-diphenyltetrazolium bromide (MTT) to determine viability. Compound toxicity can, therefore, be assessed by determining the concentration of agent which kills 50% of the cells (IC50).

[4] = PBMC viability (MTT), compound toxicity; type: cell-based; conditions: human, MTT viability, additional four hours, concentration which kills 50% of the cells, read-out: PBMC TC50
Excerpt: as §2

Compound | Ki (ICE [1]) | IC50 (ICE [2]) | IC50 (Ich-2 (Caspase-4)) | IC50 [3] | CC50 [4]
3-(2-Methylbutoxy-Benzenesulfonylamino)-4-Oxo-Butyric Acid [Example 30] | 4.2 µM | 37 µM | 221 µM | – | –
O=C[C@H](CC(=O)O)NS(=O)(=O)c1ccccc1-c1ccccc1 [Example 1, 3-(Biphenyl-2-Sulfoamino)-4-Oxo-Butyric Acid] | 1.6 µM | 20.3 µM | 88 µM | > 100 µM | > 100 µM
O=C[C@H](CC(=O)O)NS(=O)(=O)c1ccccc1 [Example 2, 3-Benzenesulfonylamino-4-Oxo-Butyric Acid] | 6.8 µM | 86.8 µM | 259 µM | > 100 µM | –
O=C[C@H](CC(=O)O)NS(=O)(=O)c1ccccc1Cc1ccccc1 [Example 3, 3-(2-Benzyl-Benzenesulfonylamino)-4-Oxo-Butyric Acid] | 3.7 µM | 37 µM | 70 µM | – | –
O=CC(CC(=O)O)NS(=O)(=O)c1ccccc1Oc1ccccc1 (stereo not shown) [Example 4, 4-Oxo-3-(2-Phenoxy-Benzenesulfonylamino)-Butyric Acid] | – | 24 µM | 52 µM | – | –
Cc1ccc(Oc2ccccc2S(=O)(=O)N[C@H](C=O)CC(=O)O)cc1 [Example 5, 4-Oxo-3-(2-p-Tolyloxy-Benzenesulfonylamino)-Butyric Acid] | – | 8.8 µM | 18 µM | 67.5 µM | > 100 µM
CC(C)c1ccc(Oc2ccccc2S(=O)(=O)NC(C=O)CC(=O)O)cc1 (stereo not shown) [Example 6, 3-[2-(4-Isopropyl-Phenoxy)-Benzenesulfonylamino]-4-Oxo-Butyric Acid] | 0.54 µM | 5.3 µM | 6.1 µM | 23.5 µM | > 100 µM
Cc1cccc(Oc2ccccc2S(=O)(=O)N[C@H](C=O)CC(=O)O)c1 [Example 7, 4-Oxo-3-(2-m-Tolyloxy-Benzenesulfonylamino)-Butyric Acid] | – | 10.8 µM | 33 µM | 67.5 µM | > 100 µM
CC(C)c1cccc(Oc2ccccc2S(=O)(=O)N[C@H](C=O)CC(=O)O)c1 [Example 8, 3-[2-(3-lsopropyl-Phenoxy)-Benzenesulfonylamino]-4-Oxo-Butyric Acid] | 0.41 µM | 3.7 µM | 6.1 µM | 45 µM | > 100 µM
Cc1ccc(-c2ccccc2S(=O)(=O)NC(C=O)CC(=O)O)cc1 (stereo not shown) [Example 9, 3-(4'-Methyl-Biphenyl-2-Sulfonylamino)-4-Oxo-Butyric Acid] | 6.4 µM | 66.2 µM | 109 µM | – | –
CC(C)COc1ccccc1S(=O)(=O)NC(C=O)CC(=O)O (stereo not shown) [Example 10, 3-(2-Isobutoxy-Benzenesulfonylamino)-4-Oxo-Butyric Acid] | 4.2 µM | 22 µM | 318 µM | 90 µM | > 100 µM
CCCC(C)C(=O)Nc1ccccc1S(=O)(=O)N[C@H](C=O)CC(=O)O (stereo partly shown) [Example 11, 3-[2-(2-Methyl-Pentanoylamino)-Benzenesulfonylamino]-4-Oxo-Butyric Acid] | 17 µM | 55 µM | 569 µM | – | –
Cc1ccccc1Oc1ccccc1S(=O)(=O)NC(C=O)CC(=O)O (stereo not shown) [Example 12, 4-Oxo-3-(2-o-Tolyloxy-Benzenesulfonylamino)-Butyric Acid] | 3 µM | 14 µM | 59 µM | 90 µM | > 100 µM
O=CC(CC(=O)O)NS(=O)(=O)c1ccccc1CCc1ccccc1 (stereo not shown) [Example 13, 4-Oxo-3-(2-Phenethyl-Benzenesulfonylamino)-Butyric Acid] | 7 µM | 32 µM | 167 µM | – | –
O=CC(CC(=O)O)NS(=O)(=O)c1ccccc1OC1CCCCC1 (stereo not shown) [Example 14, 3-(2-Cyclohexyloxy-Benzenesulfonylamino)-4-Oxo-Butyric Acid] | 2.3 µM | 20 µM | 35 µM | 90 µM | > 100 µM
O=CC(CC(=O)O)NS(=O)(=O)c1ccccc1Oc1ccc2ccccc2c1Cl (stereo not shown) [Example 15, 3-[2-(1-Chloro-Naphthalen-2-Yloxy)-Benzenesulfonylamino]-4-Oxo-Butyric Acid] | 1 µM | 5.1 µM | 22 µM | 50 µM | > 100 µM
O=CC(CC(=O)O)NS(=O)(=O)c1ccccc1Oc1ccc2c(c1)CCCC2 (stereo not shown) [Example 16, 4-Oxo-3-[2-(5,6,7,8-Tetrahydro-Naphthalen-2-Yloxy)-Benzenesulfonylamino]-Butyric Acid] | 1.3 µM | 5.8 µM | 42 µM | 65 µM | > 100 µM
O=CC(CC(=O)O)NS(=O)(=O)c1ccccc1OCCc1ccccc1 (stereo not shown) [Example 17, 4-Oxo-3-(2-Phenethyloxy-Benzenesulfonylamino)-Butyric Acid] | 0.9 µM | 9.2 µM | 63 µM | 55 µM | > 100 µM
Cc1cc(Oc2ccccc2S(=O)(=O)NC(C=O)CC(=O)O)ccc1C(C)C (stereo not shown) [Example 22, 3-[2-(4-Isopropyl-3-Methyl-Phenoxy)-Benzenesulfonylamino]-4-Oxo-Butyric Acid] | – | 1 µM | 76 µM | 25 µM | > 100 µM
CCC(CC)c1ccc(Oc2ccccc2S(=O)(=O)NC(C=O)CC(=O)O)cc1 (stereo not shown) [Example 25, 3-{2-[4-(1-Ethyl-Propyl)-Phenoxy]-Benzenesulfonylamino}-4-Oxo-Butyric Acid] | – | 3.5 µM | 6.5 µM | 27 µM | > 100 µM
Cc1cc(Oc2ccccc2S(=O)(=O)NC(C=O)CC(=O)O)cc(C)c1C (stereo not shown) [Example 26, 4-Oxo-3-[2-(3,4,5-Trimethyl-Phenoxy)-Benzenesulfonylamino]-Butyric Acid] | – | 7.8 µM | 23 µM | 58 µM | > 100 µM
Cc1ccccc1-c1ccccc1S(=O)(=O)NC(C=O)CC(=O)O (stereo not shown) [Example 32, 3-(2'-Methyl-Biphenyl-2-Sulfonylamino)-4-Oxo-Butyric Acid] | 7 µM | 28 µM | 603 µM | – | –
O=CC(CC(=O)O)NS(=O)(=O)c1ccccc1-c1cccc2ccccc12 (stereo not shown) [Example 33, 3-(2-Naphthalen-1-yl-Benzenesulfonylamino)-4-Oxo-Butyric Acid] | 7 µM | – | 77 µM | – | –
O=CC(CC(=O)O)NS(=O)(=O)c1cccc2ccccc12 (stereo not shown) [Example 34, 3-(Naphthalene-1-Sulfonylamino)-4-Oxo-Butyric Acid] | 31 µM | 110 µM | 602 µM | – | –
O=CC(CC(=O)O)NS(=O)(=O)c1ccccc1OCC1CCCO1 (stereo not shown) [Example 43, 4-Oxo-3-[2-(Tetrahydro-Furan-2-Ylmethoxy)-Benzenesulfonylamino]-Butyric Acid] | 7.7 µM | 99 µM | 1970 µM | – | –
O=CC(CC(=O)O)NS(=O)(=O)c1ccccc1[N+](=O)[O-] (stereo not shown) [Example 46, 3-(2-Nitro-Benzenesulfonylamino)-4-Oxo-Butyric Acid] | 10 µM | 130 µM | 525 µM | – | –
